Results taken from patent publication US20060069132A1, “Azolecarboxamide herbicides” (priority 2004, published 2006).
Like-named read-outs stand apart in the source and are kept apart here.

Experiments:
wheat = assay: Test B postemergence herbicide test; assay type: in vivo, Triticum aestivum; conditions: Triticum aestivum, post-emergence, 336 h, postemergence, 500 g ai/ha; visual rating, scale 0 (no effect) to 100 (complete control); read-out: Wheat plant response rating
Outline: (§1)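 Read-out: visual comparison with controls, scored 0 to 100, where 100 means complete control and 0 no effect. Formulated chemicals were applied postemergence to plants 2–18 cm tall (1- to 4-leaf), or to flooded-paddy plants at the 2-leaf stage, then held 13 to 15 days under glass.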

lambsquarters = assay: Test B pre-/postemergence herbicide test; assay type: in vivo, Chenopodium album; conditions: Chenopodium album, 336 h; for pest or weed control at 125 g/ha: 125 g ai/ha; for pest or weed control at 500 g/ha: 500 g ai/ha
Outline: (§2)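 Response was scored visually 13 to 15 days after treatment against untreated greenhouse controls, 0 meaning no effect and 100 complete control. Formulations (solvent mixture plus surfactant) went onto soil after planting, onto foliage of 1- to 4-leaf plants, and onto 2-leaf plants in a flooded paddy set including rice and barnyardgrass.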

pigweed = assay: Test B pre-/postemergence herbicide test; assay type: in vivo, Amaranthus retroflexus; conditions: Amaranthus retroflexus, 336 h; for pest or weed control at 125 g/ha: 125 g ai/ha; for pest or weed control at 500 g/ha: 500 g ai/ha
Outline: as §2

Surinam grass = assay: Test B pre-/postemergence herbicide test; assay type: in vivo, Urochloa decumbens; conditions: Urochloa decumbens; for pest or weed control at 125 g/ha: 125 g ai/ha; for pest or weed control at 500 g/ha: 500 g ai/ha
Outline: as §2

corn = assay: Test B pre-/postemergence herbicide test; assay type: in vivo, Zea mays; conditions: Zea mays
Outline: as §2

barnyardgrass = assay: Test B pre-/postemergence herbicide test; assay type: in vivo, Echinochloa crus-galli; conditions: Echinochloa crus-galli; for pest or weed control at 125 g/ha: 125 g ai/ha; for pest or weed control at 500 g/ha: 500 g ai/ha
Outline: (§3)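 Seeds were planted and treated preemergence with compounds formulated in a non-phytotoxic solvent mixture containing surfactant, while plants at the 1- to 4-leaf stage (2 to 18 cm) received postemergence sprays. Flooded paddy plants were grown to the 2-leaf stage. After 13 to 15 days in a greenhouse, injury was visually rated 0–100 against untreated controls.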

ducksalad = assay: Test B flooded paddy test; assay type: in vivo, Heteranthera limosa; conditions: Heteranthera limosa, 336 h, 1000 g ai/ha, visual rating, scale 0 to 100 (0 no effect, 100 complete control), 13 to 15 days, read-out: Ducksalad plant response rating
Outline: (§4)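 Postemergence plants were sprayed with formulated test chemicals at 2 to 18 cm height (1- to 4-leaf stage); paddy species were grown to the 2-leaf stage. After 13 to 15 days in a greenhouse, injury was rated visually against untreated controls on a 0–100 scale (0 = no effect, 100 = complete control).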

cocklebur = assay: Test B pre-/postemergence herbicide test; assay type: in vivo, Xanthium strumarium; conditions: Xanthium strumarium; for pest or weed control at 125 g/ha: 125 g ai/ha; for pest or weed control at 500 g/ha: 500 g ai/ha
Outline: as §3

[1] = test system: small flower umbrella sedge; assay: Test B flooded paddy test; assay type: in vivo, Cyperus difformis; conditions: Cyperus difformis, 336 h, 1000 g ai/ha, visual rating, scale 0 to 100 (0 no effect, 100 complete control), 13 to 15 days, read-out: Sedge, Umbrella plant response rating
Outline: as §4

rice = assay: Test B flooded paddy test; assay type: in vivo, Oryza sativa; conditions: Oryza sativa, 336 h, 1000 g ai/ha, visual rating, scale 0 to 100 (0 no effect, 100 complete control), 13 to 15 days, read-out: Rice plant response rating
Outline: as §4

blackgrass = assay: Test B postemergence herbicide test; assay type: in vivo, Alopecurus myosuroides; conditions: Alopecurus myosuroides, post-emergence, 336 h, postemergence, visual rating, scale 0 (no effect) to 100 (complete control), read-out: Blackgrass plant response rating
Outline: as §4

large crabgrass = assay: Test B pre-/postemergence herbicide test; assay type: in vivo, Digitaria sanguinalis; conditions: Digitaria sanguinalis; for pest or weed control at 125 g/ha: 125 g ai/ha; for pest or weed control at 500 g/ha: 500 g ai/ha
Outline: as §2

velvetleaf = assay: Test B pre-/postemergence herbicide test; assay type: in vivo, Abutilon theophrasti; conditions: Abutilon theophrasti, 336 h; for pest or weed control at 125 g/ha: 125 g ai/ha; for pest or weed control at 500 g/ha: 500 g ai/ha
Outline: as §2

giant foxtail = assay: Test B pre-/postemergence herbicide test; assay type: in vivo, Setaria faberi; conditions: Setaria faberi, 336 h; for pest or weed control at 125 g/ha: 125 g ai/ha; for pest or weed control at 500 g/ha: 500 g ai/ha
Outline: as §2

wild oat = assay: Test B postemergence herbicide test; assay type: in vivo, Avena fatua; conditions: Avena fatua, post-emergence, 336 h, postemergence, visual rating, scale 0 (no effect) to 100 (complete control), read-out: Oat, Wild plant response rating
Outline: as §1

[2] = post-emergence, postemergence, visual rating, scale 0 (no effect) to 100 (complete control), read-out: Lambsquarters plant response rating
[3] = post-emergence, postemergence, visual rating, scale 0 (no effect) to 100 (complete control), read-out: Pigweed plant response rating
[4] = post-emergence, postemergence, visual rating, scale 0 (no effect) to 100 (complete control), read-out: Surinam Grass plant response rating
[5] = post-emergence, postemergence, visual rating, scale 0 (no effect) to 100 (complete control), read-out: Barnyardgrass plant response rating
[6] = post-emergence, postemergence, visual rating, scale 0 (no effect) to 100 (complete control), read-out: Cocklebur plant response rating
[7] = post-emergence, postemergence, visual rating, scale 0 (no effect) to 100 (complete control), read-out: Crabgrass, Large plant response rating
[8] = post-emergence, postemergence, visual rating, scale 0 (no effect) to 100 (complete control), read-out: Velvetleaf plant response rating
[9] = post-emergence, postemergence, visual rating, scale 0 (no effect) to 100 (complete control), read-out: Foxtail, Giant plant response rating

## CCn1nc(C(C)(C)C)cc1C(=O)Nc1cc(C(=O)OC)ccn1 [Compound 151, methyl 2-[[[3-(1,1-dimethylethyl)-1-ethyl-1H-pyrazol-5-yl]carbonyl]amino]-4-pyridinecarboxylate]
wheat
  plant injury at 500 g/ha: 20%
lambsquarters; [2]
  pest or weed control at 125 g/ha: 0%
  pest or weed control at 500 g/ha: 50%
lambsquarters; pre-emergence, visual rating 0-100, 0 no effect, 100 complete control, read-out: Plant response rating, Lambsquarters
  pest or weed control at 500 g/ha: 0%
lambsquarters; pre-emergence, preemergence, 0 to 100 scale, 0 is no effect, 100 is complete control, read-out: Plant response rating, Lambsquarters
  pest or weed control at 125 g/ha: 0%
pigweed; [3]
  pest or weed control at 125 g/ha: 10%
  pest or weed control at 500 g/ha: 30%
pigweed; pre-emergence, visual rating 0-100, 0 no effect, 100 complete control, read-out: Plant response rating, Pigweed
  pest or weed control at 500 g/ha: 0%
pigweed; pre-emergence, preemergence, 0 to 100 scale, 0 is no effect, 100 is complete control, read-out: Plant response rating, Pigweed
  pest or weed control at 125 g/ha: 0%
Surinam grass; [4]
  pest or weed control at 125 g/ha: 10%
  pest or weed control at 500 g/ha: 10%
Surinam grass; pre-emergence, visual rating 0-100, 0 no effect, 100 complete control, read-out: Plant response rating, Surinam Grass
  pest or weed control at 500 g/ha: 10%
Surinam grass; pre-emergence, preemergence, 0 to 100 scale, 0 is no effect, 100 is complete control, read-out: Plant response rating, Surinam Grass
  pest or weed control at 125 g/ha: 0%
corn; post-emergence, postemergence, 125 g ai/ha, visual rating, scale 0 (no effect) to 100 (complete control), read-out: Corn plant response rating
  plant injury at 125 g/ha: 10%
corn; post-emergence, postemergence, 500 g ai/ha, visual rating, scale 0 (no effect) to 100 (complete control), read-out: Corn plant response rating
  plant injury at 500 g/ha: 10%
corn; pre-emergence, 500 g ai/ha, visual rating 0-100, 0 no effect, 100 complete control
  Corn plant response rating (crop injury, 0 = no effect, 100 = complete kill) at 500 g/ha: 0%
corn; pre-emergence, preemergence, 125 g ai/ha, 0 to 100 scale, 0 is no effect, 100 is complete control
  Corn plant response rating (crop injury, 0 = no effect, 100 = complete kill) at 125 g/ha: 0%
barnyardgrass; [5]
  pest or weed control at 125 g/ha: 0%
  pest or weed control at 500 g/ha: 10%
barnyardgrass; pre-emergence, visual rating 0-100, 0 no effect, 100 complete control, read-out: Plant response rating, Barnyardgrass
  pest or weed control at 500 g/ha: 10%
barnyardgrass; pre-emergence, preemergence, 0 to 100 scale, 0 is no effect, 100 is complete control, read-out: Plant response rating, Barnyardgrass
  pest or weed control at 125 g/ha: 0%
ducksalad
  pest or weed control at 1000 g/ha: 0%
cocklebur; [6]
  pest or weed control at 125 g/ha: 0%
  pest or weed control at 500 g/ha: 0%
cocklebur; pre-emergence, visual rating 0-100, 0 no effect, 100 complete control, read-out: Plant response rating, Cocklebur
  pest or weed control at 500 g/ha: 0%
cocklebur; pre-emergence, preemergence, 0 to 100 scale, 0 is no effect, 100 is complete control, read-out: Plant response rating, Cocklebur
  pest or weed control at 125 g/ha: 0%
[1]
  pest or weed control at 1000 g/ha: 60%
rice
  plant injury at 1000 g/ha: 0%
blackgrass; 125 g ai/ha
  pest or weed control at 125 g/ha: 10%
blackgrass; 500 g ai/ha
  pest or weed control at 500 g/ha: 30%
Large crabgrass; [7]
  pest or weed control at 125 g/ha: 0%
  pest or weed control at 500 g/ha: 0%
Large crabgrass; pre-emergence, visual rating 0-100, 0 no effect, 100 complete control, read-out: Plant response rating, Crabgrass, Large
  pest or weed control at 500 g/ha: 10%
Large crabgrass; pre-emergence, preemergence, 0 to 100 scale, 0 is no effect, 100 is complete control, read-out: Plant response rating, Crabgrass, Large
  pest or weed control at 125 g/ha: 0%
velvetleaf; [8]
  pest or weed control at 125 g/ha: 10%
  pest or weed control at 500 g/ha: 20%
velvetleaf; pre-emergence, visual rating 0-100, 0 no effect, 100 complete control, read-out: Plant response rating, Velvetleaf
  pest or weed control at 500 g/ha: 0%
velvetleaf; pre-emergence, preemergence, 0 to 100 scale, 0 is no effect, 100 is complete control, read-out: Plant response rating, Velvetleaf
  pest or weed control at 125 g/ha: 0%
Giant foxtail; [9]
  pest or weed control at 125 g/ha: 10%
  pest or weed control at 500 g/ha: 20%
Giant foxtail; pre-emergence, visual rating 0-100, 0 no effect, 100 complete control, read-out: Plant response rating, Foxtail, Giant
  pest or weed control at 500 g/ha: 10%
Giant foxtail; pre-emergence, preemergence, 0 to 100 scale, 0 is no effect, 100 is complete control, read-out: Plant response rating, Foxtail, Giant
  pest or weed control at 125 g/ha: 0%
Wild oat; 125 g ai/ha
  pest or weed control at 125 g/ha: 10%
Wild oat; 500 g ai/ha
  pest or weed control at 500 g/ha: 30%
